biological target: T1, human 11β-HSD1 (Homo sapiens, UniProt P28845); assay: Enzymatic 11beta-HSD1 test (SPA-based detection); type: biochemical; details: human 11β-HSD1 microsome fraction, [1,2-3H]-cortisone, NADPH, 37° C. 1 hour
T1 construct: host or cells: microsome fraction
Experimental: Enzymatic 11beta-HSD1 test:
To measure the activity of the compounds, an SPA-based detection method (Solly et al. 2005) was employed. First of all, 20 μl of the human 11β-HSD1 microsome fraction (0.2 μg of protein), prepared in 50 mM HEPES, 0.1% BSA (w/v), were applied to a plate with 384 wells. The test compounds (0.09 μl) were applied to the assay plate in 100% DMSO. The reaction was started by addition of 20 μl of [1,2-^3H]-cortisone (0.1 μCi/[…]) in assay buffer comprising 25 mM HEPES, 100 mM KCl, 5 mM NaCl, 2 mM MgCl2 and 0.25 mM NADPH. The plate was agitated at 37° C. for 1 hour. At the same time, a stop solution comprising 20 mg/ml SPA-PVT beads, 1.6 mg/ml monoclonal cortisol antibody and 0.01 mM SSR110887 (inhibitor from the Biovitrium patent) in 50 mM HEPES, 1 M NaCl and 1 M KCl was stirred at room temperature. To stop the reaction, 25 μl of the stop solution were added to each well. The plate was agitated gently at room temperature for 1 further hour and then centrifuged at 500 gav for 1 minute, in order that the SPA beads could settle out. The plate was then read in a Wallac-1450-Microbeta unit with a standard SPA program (counting time 1 min/well). The comparative compound was glycyrrhetinic acid.
Protein and radioactive substrate were dispensed with a Biomek FX unit (Beckman Coulter) for handling liquids. The test compounds were added with a Cybi-Well equipped with a 90 nl pin tool (CyBio).
Lit.: Solly S, Mundt S S, Zokian H J, Juy-Fang Ding G, Hermanowski-Vosatka A, Strulovici B and Zheng W. High-throughput screening of 11β-Hydroxysteroid dehydrogenase type 1 in scintillation proximity format. Assay Drug Dev Technol 2005; 3:377-384.

T1 sequence (P28845 whole entry): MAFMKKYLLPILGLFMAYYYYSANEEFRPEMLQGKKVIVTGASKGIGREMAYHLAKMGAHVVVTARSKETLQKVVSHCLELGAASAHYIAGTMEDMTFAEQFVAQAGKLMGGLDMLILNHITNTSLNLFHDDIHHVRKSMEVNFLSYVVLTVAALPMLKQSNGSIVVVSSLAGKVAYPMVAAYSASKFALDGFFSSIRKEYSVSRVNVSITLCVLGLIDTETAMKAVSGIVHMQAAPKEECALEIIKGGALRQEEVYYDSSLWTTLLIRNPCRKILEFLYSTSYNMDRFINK

Row | SMILES | IC50 [nM]
1 | CC1(C)OC(N[C@@H](CCO)c2ccccc2F)=NS(=O)(=O)C1c1ccc(N2CCN(CCC(F)(F)F)CC2)cc1 (mixture of isomers) [Example 131, (S)-3-(6,6-Dimethyl-4,4-dioxo-5-{4-[4-(3,3,3-trifluoropropyl)-piperazin-1-yl]-phenyl}-5,6-dihydro-4H-4lambda6-[1,4,3]oxathiazin-2-ylamino)-3-(2-fluorophenyl)-propan-1-ol] | 17
2 | CC1(C)OC(N[C@@H](CCO)c2ccccc2)=NS(=O)(=O)C1c1ccccc1 (single isomer, unassigned) [Example 28] | 16
3 | CC1(C)OC(N[C@@H](CCO)c2ccccc2)=NS(=O)(=O)C1c1ccccc1 (single isomer, unassigned) [Example 29] | 23
4 | CC1(C)OC(N[C@@H](CCO)c2ccccc2F)=NS(=O)(=O)C1c1ccc(-c2ccccc2)cc1 (single isomer, unassigned) [Example 69] | 13
5 | CC1(C)OC(N[C@@H](CCO)c2ccccc2F)=NS(=O)(=O)C1c1ccc(-c2ccccc2)cc1 (single isomer, unassigned) [Example 70] | 19
6 | CC1(C)OC(N[C@@H](CCO)c2ccccc2F)=NS(=O)(=O)C1(C)c1cccc(-c2ccccc2)c1 (single isomer, unassigned) [Example 74] | 12
7 | CC1(C)OC(N[C@@H](CCO)c2ccccc2F)=NS(=O)(=O)C1(C)c1cccc(-c2ccccc2)c1 (single isomer, unassigned) [Example 75] | 44
8 | CC(C)(C)c1ccc(C2C(C)(C)OC(N[C@@H](CCO)c3ccccc3F)=NS2(=O)=O)cc1 (single isomer, unassigned) [Example 84] | 15
9 | CC(C)(C)c1ccc(C2C(C)(C)OC(N[C@@H](CCO)c3ccccc3F)=NS2(=O)=O)cc1 (single isomer, unassigned) [Example 85] | 9
10 | CC1(C)OC(N[C@@H](CCO)c2ccccc2F)=NS(=O)(=O)C1c1ccc(N2CCN(CCC(F)(F)F)CC2)cc1 (single isomer, unassigned) [Example 182] | 6
11 | CC1(C)OC(N[C@@H](CCO)c2ccccc2F)=NS(=O)(=O)C1c1ccc(N2CCN(CCC(F)(F)F)CC2)cc1 (single isomer, unassigned) [Example 183] | 20
12 | CC1(C)OC(N[C@@H](CCO)c2ccccc2)=NS(=O)(=O)C1c1cccc(C(F)(F)F)c1 (stereo partly drawn) [Compound 21, (S)-3-[6,6-Dimethyl-4,4-dioxo-5-(3-trifluoromethylphenyl)-5,6-dihydro-4H-4lambda6-[1,4,3]oxathiazin-2-ylamino]-3-phenylpropan-1-ol] | 22
13 | CC1(C)OC(N[C@@H](CCO)c2ccccc2)=NS(=O)(=O)C1(C)c1cccc(N2CCN(S(C)(=O)=O)CC2)c1 (stereo partly drawn) [Compound 34, (S)-3-{5-[3-(4-Methanesulfonylpiperazin-1-yl)-phenyl]-5,6,6-trimethyl-4,4-dioxo-5,6-dihydro-4H-4lambda6-[1,4,3]oxathiazin-2-ylamino}-3-phenylpropan-1-ol] | 17
14 | C[C@H](NC1=NS(=O)(=O)C(C)(c2cccc(N3CCN(S(C)(=O)=O)CC3)c2)C(C)(C)O1)c1ccccc1F (stereo partly drawn) [Compound 35, [(S)-1-(2-Fluorophenyl)ethyl]-{5-[3-(4-methanesulfonylpiperazin-1-yl)-phenyl]-5,6,6-trimethyl-4,4-dioxo-5,6-dihydro-4H-4lambda6-[1,4,3]oxathiazin-2-yl}amine] | 15
15 | C[C@H](NC1=NS(=O)(=O)C(C)(c2cccc(N3CCCC3)c2)C(C)(C)O1)c1ccccc1F (stereo partly drawn) [Compound 36, [(S)-1-(2-Fluorophenyl)ethyl]-[5,6,6-trimethyl-4,4-dioxo-5-(3-pyrrolidin-1-ylphenyl)-5,6-dihydro-4H-4lambda6-[1,4,3]oxathiazin-2-yl]amine] | 15
16 | CC1(C)OC(N[C@@H](CCO)c2ccccc2)=NS(=O)(=O)C1(C)c1cccc(N2CCCC2)c1 (stereo partly drawn) [Compound 38, (S)-3-Phenyl-3-[5,6,6-trimethyl-4,4-dioxo-5-(3-pyrrolidin-1-ylphenyl)-5,6-dihydro-4H-4lambda6-[1,4,3]oxathiazin-2-ylamino]propan-1-ol] | 19
17 | CC1(C)OC(N[C@@H](CCO)c2ccccc2)=NS(=O)(=O)C1(C)c1cccc(N2CCCC2)c1 (stereo partly drawn) [Compound 39, (S)-3-Phenyl-3-[5,6,6-trimethyl-4,4-dioxo-5-(3-pyrrolidin-1-ylphenyl)-5,6-dihydro-4H-4lambda6-[1,4,3]oxathiazin-2-ylamino]propan-1-ol] | 24
18 | CC1(C)OC(N[C@@H](CCO)c2ccccc2)=NS(=O)(=O)C1(C)c1cccc(-c2cncnc2)c1 (stereo partly drawn) [Compound 40, (S)-3-Phenyl-3-[5,6,6-trimethyl-4,4-dioxo-5-(3-pyrimidin-5-ylphenyl)-5,6-dihydro-4H-4lambda6-[1,4,3]oxathiazin-2-ylamino]propan-1-ol] | 15
19 | C[C@H](NC1=NS(=O)(=O)C(C)(c2cccc(-c3cncnc3)c2)C(C)(C)O1)c1ccccc1F (stereo partly drawn) [Compound 41, [(S)-1-(2-Fluorophenyl)ethyl]-[5,6,6-trimethyl-4,4-dioxo-5-(3-pyrimidin-5-ylphenyl)-5,6-dihydro-4H-4lambda6-[1,4,3]oxathiazin-2-yl]amine] | 10
20 | C[C@H](NC1=NS(=O)(=O)C(C)(c2ccccc2)C(C)(C)O1)c1ccccc1F (stereo partly drawn) [Compound 43, [(S)-1-(2-Fluorophenyl)ethyl]-(5,6,6-trimethyl-4,4-dioxo-5-phenyl-5,6-dihydro-4H-4lambda6-[1,4,3]oxathiazin-2-yl)amine] | 7
21 | CC1(C)OC(N[C@@H](CCO)c2ccccc2F)=NS(=O)(=O)C1(C)c1cccc(N2CCCC2)c1 (stereo partly drawn) [Compound 45, (S)-3-(2-Fluorophenyl)-3-[5,6,6-trimethyl-4,4-dioxo-5-(3-pyrrolidin-1-ylphenyl)-5,6-dihydro-4H-4lambda6-[1,4,3]oxathiazin-2-ylamino]propan-1-ol] | 11
22 | CC1(C)OC(N[C@@H](CCO)c2ccccc2F)=NS(=O)(=O)C1(C)c1ccccc1 (stereo partly drawn) [Compound 48, (S)-3-(2-Fluorophenyl)-3-(5,6,6-trimethyl-4,4-dioxo-5-phenyl-5,6-dihydro-4H-4lambda6-[1,4,3]oxathiazin-2-ylamino)propan-1-ol] | 5
23 | CC1(C)OC(N[C@@H](CCO)c2ccccc2F)=NS(=O)(=O)C1(C)c1cccc(N2CCCC2)c1 (stereo partly drawn) [Compound 49, (S)-3-(2-Fluorophenyl)-3-[5,6,6-trimethyl-4,4-dioxo-5-(3-pyrrolidin-1-ylphenyl)-5,6-dihydro-4H-4lambda6-[1,4,3]oxathiazin-2-ylamino]propan-1-ol] | 24
24 | C[C@H](NC1=NS(=O)(=O)C(c2ccc(-c3ccccc3)cc2)C(C)(C)O1)c1ccccc1F (stereo partly drawn) [Compound 52, (5-Biphenyl-4-yl-6,6-dimethyl-4,4-dioxo-5,6-dihydro-4H-4lambda6-[1,4,3]oxathiazin-2-yl)-[(S)-1-(2-fluorophenyl)ethyl]amine] | 64
25 | C[C@H](NC1=NS(=O)(=O)C(C)(c2ccccc2)C(C)(C)O1)c1ccccc1F (stereo partly drawn) [Compound 56, [(S)-1-(2-Fluorophenyl)ethyl]-(5,6,6-trimethyl-4,4-dioxo-5-phenyl-5,6-dihydro-4H-4lambda6-[1,4,3]oxathiazin-2-yl)amine, stereomer 1] | 8
26 | C[C@H](NC1=NS(=O)(=O)C(C)(c2ccccc2)C(C)(C)O1)c1ccccc1F (stereo partly drawn) [Compound 57, [(S)-1-(2-Fluorophenyl)ethyl]-(5,6,6-trimethyl-4,4-dioxo-5-phenyl-5,6-dihydro-4H-4lambda6-[1,4,3]oxathiazin-2-yl)amine, stereomer 2] | 7
27 | CC(C)(C)c1ccc(C2C(C)(C)OC(N[C@@H](CCO)c3ccccc3F)=NS2(=O)=O)cc1 (stereo partly drawn) [Compound 58, (S)-3-[5-(4-tert-Butylphenyl)-6,6-dimethyl-4,4-dioxo-5,6-dihydro-4H-4lambda6-[1,4,3]oxathiazin-2-ylamino]-3-(2-fluorophenyl)propan-1-ol] | 21
28 | C[C@H](NC1=NS(=O)(=O)C(c2ccc(C(C)(C)C)cc2)C(C)(C)O1)c1ccccc1F (stereo partly drawn) [Compound 59, [5-(4-tert-Butylphenyl)-6,6-dimethyl-4,4-dioxo-5,6-dihydro-4H-4lambda6-[1,4,3]oxathiazin-2-yl]-[(S)-1-(2-fluorophenyl)ethyl]amine] | 55
29 | CC(C)(C)c1ccc(C2C(C)(C)OC(N[C@@H](CCO)c3ccccc3)=NS2(=O)=O)cc1 (stereo partly drawn) [Compound 60, (S)-3-[5-(4-tert-Butylphenyl)-6,6-dimethyl-4,4-dioxo-5,6-dihydro-4H-4lambda6-[1,4,3]oxathiazin-2-ylamino]-3-phenylpropan-1-ol] | 43
30 | CC(C)(C)c1ccc(C2(C)C(C)(C)OC(N[C@@H](CCO)c3ccccc3F)=NS2(=O)=O)cc1 (stereo partly drawn) [Compound 61, (S)-3-[5-(4-tert-Butylphenyl)-5,6,6-trimethyl-4,4-dioxo-5,6-dihydro-4H-4lambda6-[1,4,3]oxathiazin-2-ylamino]-3-(2-fluorophenyl)propan-1-ol] | 14

Reference: US8895547B2, “Substituted phenyl-oxathiazine derivatives, method for producing them, drugs containing said compounds and the use thereof” (Sanofi, priority 2011, dated 2014)
